Reference: ChEMBL document CHEMBL5241113, “Total Heterologous Biosynthesis of Fungal Natural Products in Aspergillus nidulans” (2022)
Values after ≈ are worked out from the molar mass of the structure shown.

Tested on: Nematoda
Test: Nematocidal activity
Format: functional

## CC(=O)O[C@H](C[C@H](C)O)[C@@H](C)[C@@H](O)[C@@H](C)C[C@H](C)[C@@H]1OC(=O)[C@H](C)NC(=O)C[C@@H](O)C[C@H](O)[C@H](C)C[C@H]1C
  LC50: 0.5 µg/mL (≈ 0.916 µM)

## CC(=O)O[C@@H](C)C[C@@H](O)[C@@H](C)[C@@H](O)[C@@H](C)C[C@H](C)[C@@H]1OC(=O)[C@H](C)NC(=O)C[C@@H](O)C[C@H](O)[C@H](C)C[C@H]1C
  LC50: 0.5 µg/mL (≈ 0.916 µM)
